The source made the active and inactive calls. The calls are words filed in the database; no cut-off is given here.
Key:
[1] = biological target: T1, P2Y purinoceptor 14 (Homo sapiens) (UniProt Q15391); details: time 30.0 min
T1 sequence (whole entry): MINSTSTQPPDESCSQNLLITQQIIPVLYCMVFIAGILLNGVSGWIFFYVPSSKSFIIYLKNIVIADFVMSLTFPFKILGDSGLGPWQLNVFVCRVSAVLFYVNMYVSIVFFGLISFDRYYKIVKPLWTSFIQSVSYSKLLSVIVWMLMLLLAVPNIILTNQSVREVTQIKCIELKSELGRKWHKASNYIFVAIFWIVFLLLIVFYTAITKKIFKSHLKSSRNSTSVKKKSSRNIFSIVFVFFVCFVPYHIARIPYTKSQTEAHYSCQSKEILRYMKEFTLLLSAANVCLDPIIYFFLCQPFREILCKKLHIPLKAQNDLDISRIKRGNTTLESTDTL

P2Y purinoceptor 14 = biological target: T2, P2Y purinoceptor 14 (Homo sapiens, UniProt Q15391); experiment: Antagonist activity at human P2Y14R stably expressed in HEK293 cells assessed as inhibition of UDPG-induced cAMP accumulation at 100 nM incubated for 30 mins in presence of forskolin by cAMP-Glo assay relative to control; type: functional, cell-based
T2 sequence (Q15391 whole entry): T1 sequence (whole entry)

Mus musculus [2] = experiment: Anti-inflammatory activity in LPS-induced male C57BL/6 mouse model of acute […] injury assessed as decrease in IL-6 level at 2 mg/kg measured after 7 days; type: functional, organism-based; details: time 7.0 day
Mus musculus [3] = experiment: Anti-inflammatory activity in LPS-induced male C57BL/6 mouse model of acute […] injury assessed as decrease in F4/80+ macrophage in lung tissue at 2 mg/kg measured after 7 days by immunofluorescence analysis; type: functional, organism-based; details: time 7.0 day
Mus musculus [4] = experiment: Anti-inflammatory activity in LPS-induced male C57BL/6 mouse model of acute […] injury assessed as decrease CXCL9 mRNA expression in lung at 2 mg/kg measured after 7 days by qPCR analysis; type: functional, organism-based; details: time 7.0 day
Mus musculus [5] = experiment: Anti-inflammatory activity in LPS-induced male C57BL/6 mouse model of acute […] injury assessed as decrease in Ly6G+ neutrophils in lung tissue at 2 mg/kg measured after 7 days by immunofluorescence analysis; type: functional, organism-based; details: time 7.0 day
Mus musculus [6] = experiment: Anti-inflammatory activity in LPS-induced male C57BL/6 mouse model of acute […] injury assessed as decrease in IL-1 beta level at 2 mg/kg measured after 7 days; type: functional, organism-based; details: time 7.0 day
Mus musculus [7] = experiment: Anti-inflammatory activity in LPS-induced male C57BL/6 mouse model of acute […] injury assessed as decrease in CXCL1 mRNA expression in lung at 2 mg/kg measured after 7 days by qPCR analysis; type: functional, organism-based; details: time 7.0 day
Mus musculus [8] = experiment: Anti-inflammatory activity in LPS-induced male C57BL/6 mouse model of acute […] injury assessed as decrease in total WBC count in BALF at 2 mg/kg measured after 7 days; type: functional, organism-based; details: time 7.0 day
Mus musculus [9] = experiment: Anti-inflammatory activity in LPS-induced male C57BL/6 mouse model of acute […] injury assessed as decrease in GSDMD-N expression at 2 mg/kg measured after 7 days; type: functional, organism-based; details: time 7.0 day
Mus musculus [10] = experiment: Anti-inflammatory activity in LPS-induced male C57BL/6 mouse model of acute […] injury assessed as alveolar wall thickening at 2 mg/kg measured after 7 days by H and E staining based analysis; type: functional, organism-based; details: time 7.0 day
Mus musculus [11] = experiment: Anti-inflammatory activity in LPS-induced male C57BL/6 mouse model of acute […] injury assessed as decrease in NLRP3 expression at 2 mg/kg measured after 7 days; type: functional, organism-based; details: time 7.0 day
Mus musculus [12] = experiment: Anti-inflammatory activity in LPS-induced male C57BL/6 mouse model of acute […] injury assessed as decrease in CXCL1 level in serum at 2 mg/kg measured after 7 days by ELISA method; type: functional, organism-based; details: time 7.0 day
Mus musculus [13] = experiment: Anti-inflammatory activity in LPS-induced male C57BL/6 mouse model of acute […] injury assessed as decrease NE level at 2 mg/kg measured after 7 days; type: functional, organism-based; details: time 7.0 day
Mus musculus [14] = experiment: Anti-inflammatory activity in LPS-induced male C57BL/6 mouse model of acute […] injury assessed as decrease in CCL2 mRNA expression in lung at 2 mg/kg measured after 7 days by qPCR analysis; type: functional, organism-based; details: time 7.0 day
Mus musculus [15] = experiment: Anti-inflammatory activity in LPS-induced male C57BL/6 mouse model of acute […] injury assessed as decrease MPO level at 2 mg/kg measured after 7 days; type: functional, organism-based; details: time 7.0 day
Mus musculus [16] = experiment: Anti-inflammatory activity in LPS-induced male C57BL/6 mouse model of acute […] injury assessed as decrease in lymphocyte count in BALF at 2 mg/kg measured after 7 days; type: functional, organism-based; details: time 7.0 day
Mus musculus [17] = experiment: Anti-inflammatory activity in LPS-induced male C57BL/6 mouse model of acute […] injury assessed as reduction of neutrophil infiltration at 2 mg/kg measured after 7 days by H and E staining based analysis; type: functional, organism-based; details: time 7.0 day
Mus musculus [18] = experiment: Anti-inflammatory activity in LPS-induced male C57BL/6 mouse model of acute […] injury assessed as reduction of intravascular congestion at 2 mg/kg measured after 7 days by H and E staining based analysis; type: functional, organism-based; details: time 7.0 day
Mus musculus [19] = experiment: Anti-inflammatory activity in LPS-induced male C57BL/6 mouse model of acute […] injury assessed as decrease in CXCL10 mRNA expression in lung at 2 mg/kg measured after 7 days by qPCR analysis; type: functional, organism-based; details: time 7.0 day
Mus musculus [20] = experiment: Anti-inflammatory activity in LPS-induced male C57BL/6 mouse model of acute […] injury assessed as decrease in caspase-1 expression at p20 subunit at 2 mg/kg measured after 7 days; type: functional, organism-based; details: time 7.0 day
Mus musculus [21] = experiment: Anti-inflammatory activity in LPS-induced male C57BL/6 mouse model of acute […] injury assessed as appearance of tight junction integrity at 2 mg/kg measured after 7 days by ZO-1 staining based immunofluorescence analysis; type: functional, organism-based; details: time 7.0 day
Mus musculus [22] = experiment: Anti-inflammatory activity in LPS-induced male C57BL/6 mouse model of acute […] injury assessed as reduction of interstitial hemorrhage at 2 mg/kg measured after 7 days by H and E staining based analysis; type: functional, organism-based; details: time 7.0 day
Mus musculus [23] = experiment: Anti-inflammatory activity in LPS-induced male C57BL/6 mouse model of acute […] injury assessed as decrease in neutrophil count in BALF at 2 mg/kg measured after 7 days; type: functional, organism-based; details: time 7.0 day
Mus musculus [24] = experiment: Anti-inflammatory activity in LPS-induced male C57BL/6 mouse model of acute […] injury assessed as decrease in caspase-1 expression at p10 subunit at 2 mg/kg measured after 7 days; type: functional, organism-based; details: time 7.0 day
Mus musculus [25] = experiment: Anti-inflammatory activity in LPS-induced male C57BL/6 mouse model of acute […] injury assessed as decrease in monocyte count in BALF at 2 mg/kg measured after 7 days; type: functional, organism-based; details: time 7.0 day
Mus musculus [26] = experiment: Anti-inflammatory activity in LPS-induced male C57BL/6 mouse model of acute […] injury assessed as decrease dsDNA formation at 2 mg/kg measured after 7 days; type: functional, organism-based; details: time 7.0 day
Mus musculus [27] = experiment: Anti-inflammatory activity in LPS-induced male C57BL/6 mouse model of acute […] injury assessed as decrease in ASC expression at 2 mg/kg measured after 7 days; type: functional, organism-based; details: time 7.0 day
Mus musculus [28] = experiment: Anti-inflammatory activity in LPS-induced male C57BL/6 mouse model of acute […] injury assessed as decrease in CCL2 level in serum at 2 mg/kg measured after 7 days by ELISA method; type: functional, organism-based; details: time 7.0 day
Mus musculus [29] = experiment: Anti-inflammatory activity in LPS-induced male C57BL/6 mouse model of acute […] injury assessed as reduction of lung edema at 2 mg/kg measured after 7 days by H and E staining based analysis; type: functional, organism-based; details: time 7.0 day
Mus musculus [30] = experiment: Anti-inflammatory activity in LPS-induced male C57BL/6 mouse model of acute […] injury assessed as decrease in TNF-alpha level at 2 mg/kg measured after 7 days; type: functional, organism-based; details: time 7.0 day
Mus musculus [31] = experiment: Anti-inflammatory activity in LPS-induced male C57BL/6 mouse model of acute […] injury assessed as reduction in Wet/dry weight ratio at 2 mg/kg measured after 7 days; type: functional, organism-based; details: time 7.0 day
[32] = HEK293, filed as antagonist, dose 100.0 nM

## N#Cc1ccc(CC(=O)Nc2cc(C(=O)O)cc(-c3nc4ccccc4o3)c2)cc1
[1]; [32]
  inhibition: 46.1%

## COC(=O)c1cc(NC(=O)Cc2ccc(OC)cc2)cc(-c2nc3ccccc3o2)c1
[1]; HEK293, dose 100.0 nM
  inhibition: 39.3%

## COC(=O)c1cc(NC(=O)Cc2ccc(C)cc2)cc(-c2nc3ccccc3s2)c1
[1]; HEK293, dose 100.0 nM
  inhibition: 34.7%

## O=C(Cn1cccc1)Nc1cc(C(=O)O)cc(-c2nc3ccccc3o2)c1
[1]; [32]
  inhibition: 43.2%

## Cc1ccc(CC(=O)Nc2cc(C(=O)NCCOCCOCCOCCNC(=O)CCCC[C@H]3SC[C@H]4NC(=O)N[C@H]43)cc(-c3nc4ccccc4[nH]3)c2)cc1
P2Y purinoceptor 14
  IC50: 0.84 nM

## COC(=O)c1cc(NC(=O)Cc2ccc(-n3cccc3)cc2)cc(-c2nc3ccccc3o2)c1
[1]; HEK293, dose 100.0 nM
  inhibition: 32.3%

## O=C(Cc1ccc(-n2cccc2)cc1)Nc1cc(C(=O)O)cc(-c2nc3ccccc3o2)c1
[1]; HEK293, dose 100.0 nM
  inhibition: 24.2%

## O=C(Cc1cccs1)Nc1cc(C(=O)O)cc(-c2nc3ccccc3o2)c1
[1]; HEK293, dose 100.0 nM
  inhibition: 39.8%

## COC(=O)c1cc(NC(=O)Cc2cccs2)cc(-c2nc3ccccc3o2)c1
[1]; HEK293, dose 100.0 nM
  inhibition: 36.5%

## COC(=O)c1cc(NC(=O)Cc2ccccc2)cc(-c2nc3ccccc3o2)c1
[1]; [32]
  inhibition: 48.6%

## COC(=O)c1cc(NC(=O)Cn2cncn2)cc(-c2nc3ccccc3o2)c1
[1]; [32]
  inhibition: 41.5%

## C[C@@H]1C[C@H]2[C@@H]3CCC4=CC(=O)C=C[C@]4(C)[C@@]3(F)[C@@H](O)C[C@]2(C)[C@@]1(O)C(=O)CO
Mus musculus [2]
  Activity: Active
Mus musculus [3]
  Activity: Active
Mus musculus [4]
  Activity: Active
Mus musculus [5]
  Activity: Active
Mus musculus [6]
  Activity: Active
Mus musculus [7]
  Activity: Active
Mus musculus [8]
  Activity: Active
Mus musculus [9]
  Activity: Active
Mus musculus [10]
  Activity: Active
Mus musculus [11]
  Activity: Active
Mus musculus [12]
  Activity: Active
Mus musculus [13]
  Activity: Active
Mus musculus [14]
  Activity: Active
Mus musculus [15]
  Activity: Active
Mus musculus [16]
  Activity: Active
Mus musculus [17]
  Activity: Active
Mus musculus [18]
  Activity: Active
Mus musculus [19]
  Activity: Active
Mus musculus [20]
  Activity: Active
Mus musculus [21]
  Activity: Active
Mus musculus [22]
  Activity: Active
Mus musculus [23]
  Activity: Active
Mus musculus [24]
  Activity: Active
Mus musculus [25]
  Activity: Active
Mus musculus [26]
  Activity: Active
Mus musculus [27]
  Activity: Active
Mus musculus [28]
  Activity: Active
Mus musculus [29]
  Activity: Active
Mus musculus [30]
  Activity: Active
Mus musculus [31]
  Activity: Active

## COC(=O)c1cc(NC(=O)Cc2ccc(C)c(C)c2)cc(-c2nc3ccccc3o2)c1
[1]; HEK293, dose 100.0 nM
  inhibition: 34.5%

## COC(=O)c1cc(NC(=O)Cc2ccc(C)cc2C)cc(-c2nc3ccccc3o2)c1
[1]; [32]
  inhibition: 42.3%

## COC(=O)c1cc(NC(=O)Cc2ccc(F)cc2)cc(-c2nc3ccccc3o2)c1
[1]; HEK293, dose 100.0 nM
  inhibition: inactive

## O=C(Cc1ccc(F)cc1)Nc1cc(C(=O)O)cc(-c2nc3ccccc3o2)c1
[1]; HEK293, dose 100.0 nM
  inhibition: 30.8%

## COC(=O)c1cc(NC(=O)Cn2cccc2)cc(-c2nc3ccccc3o2)c1
[1]; HEK293, dose 100.0 nM
  inhibition: 26.3%

## O=C(Cn1cncn1)Nc1cc(C(=O)O)cc(-c2nc3ccccc3o2)c1
[1]; HEK293, dose 100.0 nM
  inhibition: 38.3%

## O=C(Cc1ccccc1)Nc1cc(C(=O)O)cc(-c2nc3ccccc3o2)c1
[1]; HEK293, dose 100.0 nM
  inhibition: 35.2%

## O=C(Cc1ccc(C(F)(F)F)cc1)Nc1cc(C(=O)O)cc(-c2nc3ccccc3o2)c1
[1]; HEK293, dose 100.0 nM
  inhibition: 23.1%

## O=C(Cc1ccc(Br)cc1)Nc1cc(C(=O)O)cc(-c2nc3ccccc3o2)c1
[1]; HEK293, dose 100.0 nM
  inhibition: 20.9%

## COc1ccc(CC(=O)Nc2cc(C(=O)O)cc(-c3nc4ccccc4o3)c2)cc1
[1]; [32]
  inhibition: 48%

From ChEMBL document CHEMBL6096734, “Design, Synthesis and Anti-Inflammatory Evaluation of 3-Substituted 5-Amidobenzoate Derivatives as Novel P2Y14 Receptor Antagonists via Structure-Guided Molecular Hybridization” (J Med Chem, 2025)
